Test results reported in patent publication US9222070B2, “Cell therapy method for the treatment of tumors” (Janssen Pharmaceuticals, Inc., priority 2001, dated 2015).

How the values were obtained:
HLA-A2.1 molecule = target: T1, HLA-A2.1 molecule (Homo sapiens, UniProt P04439, D140Y/D185E/D98H/E176V/E277Q/G131W/G231S/I119V/I121R/I166T/I218V/L300P/L318F/N151K/N90K/P208A/P217A/Q86G/Q94H/R138H/R169H/T345S); experiment: Peptide binding on Drosophila cells expressing HLA-A2.1
T1 construct: expressed in transfected cells; host or cells: Drosophila melanogaster Schneider S2 cells (ATCC CRL 10974), pRmHa-3 vector, CuSO4 induction

CD8 cells = experiment: Ex vivo CTL generation with peptide-loaded Drosophila cells; type: cell-based, human; details: for frequency of CTL generation: normal donors, summary of Table 7; for CTL activity elicited by single epitope on Drosophila cells: donor #60, peptide added alone, lysis on JY cells, vs control HBc peptide
Source text: Human CTLs from healthy subjects were immunized in vitro against tyrosinase, MART-1 and gp100 when loaded separately on Drosophila APCs and evaluated for lysis on JY cells (FIG. 4). […] Melanoma-specific CTLs from healthy subjects were induced using the full stimulation/re-stimulation protocol and tested for their ability to lyse Jurkat cells loaded with each of the of the peptides used in the stimulations (FIG. 5). […]. […] One in which the multiple peptides were loaded onto individual Drosophila cells and mixed before the primary stimulation (combo mix), or the multiple peptides were mixed and then loaded onto the Drosophila APCs (combo load).
All of the peptides were synthesized, given an identification number (PRI#) and evaluated for the ability to generate CTLs ex vivo utilizing the same method we employed for melanoma-associated, T cell peptide epitopes. CD8 cells were isolated from normal donors to determine the ability to routinely generate CTLs ex vivo with Drosophila cells loaded with known CTL peptide epitopes.
Standard ^51Cr-release assays were performed to determine CTL effector cell recognition of melanoma-associated peptide epitopes loaded onto T2 cells. […] 0.1mCi of ^51Cr was added and incubated at 37° C. in a water bath. […] The cells were pulsed with the appropriate peptide(s) at 20 μg/mL for thirty minutes. 50 μL was added to each 96-well plate each containing CD8 effector cells at 10, 2, 0.4, and 0.08×10^6/mL, which was incubated at 37° C. for six hours, spun and harvested for supernatant.
To extend the ability to raise CTLs to other tumor antigens present in a wide variety of other cancers we have selected published and novel sequences to tumor antigens common to several different tumor types.

[1] = system: breast adenocarcinoma cell line (ATCC; HTB-131) transfected with HLA-A2.1; experiment: Tumor lysis by HER-2 peptide-specific CTL effectors; type: cell-based, human; details: cell line transfected with HLA-A2.1
CD8+ T cells = experiment: HLA-A2.1 tetramer staining of HER-2 peptide-specific CTLs; type: cell-based, human; details: donor 262, after four-week ex vivo stimulation protocol
Method: The cells were labeled with FITC- or PE conjugated monoclonal antibodies by incubation at 4° C. for 30 minutes in FACS buffer (1% BSA, 0.02% NaN3 in PBS), followed by a wash in the same buffer. Cells were fixed in 0.5% formaldehyde prior to data acquisition and analysis on a FACScan flow cytometer (Becton Dickinson) with its CellQuest software. Nonspecific staining was measured with the same secondary antibody used to label purified primary antibodies, or an isotype-matched control when the primary antibodies were directly labeled. Tetrameric staining was performed with HLA-A2.1 specific HIVgag tetrameric molecules (Beckman Coulter) harboring the sequence [sequence] […] PE-labeled tetrameric HLA-A2.1-peptide complexes were used in conjunction with fluorescein isothiocyanate (FITC)-labeled anti-human CD8a (BD PharMagin) monoclonal antibodies to stain epitope-specific CD8+ T cells as described in package insert. Samples were analyzed by two-color flow cytometry on a Becton Dickinson FACScan, and gated CD8+ T cells were examined for staining with tetrameric HLA-A2.1-peptide complexes.

HER-2 = experiment: FACS analysis of surface expression after IFNγ induction; type: cell-based, human
Method: (§1) The cells were treated with 500 U/ml of IFNγ (specific activity of 25 ng/ml) for twenty-four hours prior to the initiation of the ^51Cr-release assay. […] To determine the effect of this dose of IFNg on the surface expression of both HLA-A2.1 and HER-2, a FACS analysis was performed to determine the levels of these molecules after both twenty-four and forty-eight hours of induction. FIG. 18, Panels A and B depict the FACS analysis results. […] This would explain why there is an enhance killing of the HTB-77/A2.1 cells in the presence of IFNγ. An up-regulation of this particular molecule would result in more efficient processing of the HER-2 molecule, allowing better presentation of the peptides of interest

HLA-A2.1 = experiment: as above; type: cell-based, human; details: HLA-A2.1 transfected HTB-77 cells, similar treatment protocol
Method: as §1

HTB-77/A2.1 cell line = experiment: 51Cr-release lysis after IFNγ pretreatment; type: cell-based, human; details: 500 U/ml for twenty-four hours prior to 51Cr-release assay
Method: as §1

TAP-1 = experiment: Microarray DNA chip analysis of mRNA levels after IFNγ induction; type: cell-based, human; details: HTB-77/A2.1 cells after IFNγ induction

Substance: ELVSEFSRM [Peptide 863]
- binding to the HLA-A2.1 molecule on transfected Drosophila cells (HLA-A2.1 molecule): weak to moderate binders
- frequency of CTL generation (CD8 cells): highest frequency of CTL generation

Substance: VMAGVGSPYV [Peptide 861]
- lysis of tumor cell line by CTLs specific for the peptide [1]: could lysis this tumor cell line
- binding to the HLA-A2.1 molecule on transfected Drosophila cells (HLA-A2.1 molecule): weak to moderate binders
- peptide-specific CTLs, tetramer-positive (CD8+ T cells): 15.1%
- frequency of CTL generation (CD8 cells): highest frequency of CTL generation

Substance: ITDQVPFSV [Peptide 817]
- CTL activity elicited by single epitope on Drosophila cells (CD8 cells): CTL activity was elicited

Substance: CLTSTVQLV [Peptide 826]
- frequency of CTL generation (CD8 cells): highest frequency of CTL generation

Substance: YMNGTMSQV [Peptide 689]
- CTL activity elicited by single epitope on Drosophila cells (CD8 cells): CTL activity was elicited

Substance: IFNγ: interferon gamma used to pretreat tumor cell lines at 500 U/ml
- HER-2 surface expression (HER-2; HLA-A2.1 transfected HTB-77 cells, similar treatment protocol): neither HER-2 nor HLA-A2.1 demonstrated an increase
- HER-2 surface expression (HER-2; HTB-77 cells, twenty-four and forty-eight hours after induction): no enhancement
- HLA-A2.1 surface expression (HLA-A2.1): neither HER-2 nor HLA-A2.1 demonstrated an increase
- lysis of HLA-A2.1 transfected cell line (HTB-77/A2.1 cell line): enhanced lysis
- level of TAP-1 expression (mRNA); also HLA-DM and -DR, Cathepsin S and D and Caspase 5 (TAP-1): increase in the level of TAP-1 expression
